Laboratory results as given in patent publication US20260262643A1, “HERBICIDAL BENZOXAZINES” (FMC CORPORATION, priority 2022, published 2026).

Experiments:
soybean [1] = assay: Test C preemergence; assay type: in vivo, Glycine max; conditions: 0 to 100 scale (0 no effect, 100 complete control); for Plant response rating, Soybean: Preemergence, 500 g ai/ha, visual rating after 10 days; for Soybean plant response rating: Test C, preemergence, 125 g ai/ha
Summary of the method: (§1)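 Pre: seeds in loam/sand, directed soil spray. Post: 1–2 leaf plants, 2–10 cm. Cmpd in non-phytotoxic solvent + surfactant. Greenhouse 10 d; visual rating vs untreated, 0 = none, 100 = complete control.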

sedge, umbrella = assay: Test D flooded paddy test; assay type: in vivo, Cyperus difformis; conditions: 250 g ai/ha, applied to paddy water, visual rating after 13 to 14 days, scale 0 to 100 (0 no effect, 100 complete control)
Summary of the method: (§2)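 2-leaf plants; flood 3 cm above soil; compound dosed into paddy water; greenhouse 13–14 d; visual rating vs controls, 0–100 (100 = complete control); dash = not tested.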

rice = assay: Test D flooded paddy test; assay type: in vivo, Oryza sativa; conditions: 250 g ai/ha, applied to paddy water, visual rating after 13 to 14 days, scale 0 to 100 (0 no effect, 100 complete control)
Summary of the method: as §2

green foxtail [2] = assay: Test C postemergence; assay type: in vivo, Setaria viridis; conditions: 10 days
Summary of the method: as §1

ragweed [3] = assay: Test C preemergence; assay type: in vivo, Ambrosia artemisiifolia; conditions: 0 to 100 scale (0 no effect, 100 complete control); for Plant response rating, Ragweed: Preemergence, 500 g ai/ha, visual rating after 10 days; for Ragweed plant response rating: Test C, preemergence, 125 g ai/ha
Summary of the method: as §1

ducksalad = assay: Test D flooded paddy test; assay type: in vivo, Heteranthera limosa; conditions: 250 g ai/ha, applied to paddy water, visual rating after 13 to 14 days, scale 0 to 100 (0 no effect, 100 complete control)
Summary of the method: as §2

blackgrass [4] = assay: Test C preemergence; assay type: in vivo, Alopecurus myosuroides; conditions: 0 to 100 scale (0 no effect, 100 complete control); for Plant response rating, Blackgrass: Preemergence, 500 g ai/ha, visual rating after 10 days; for Blackgrass plant response rating: Test C, preemergence, 125 g ai/ha
Summary of the method: as §1

horseweed = assay: Test C postemergence; assay type: in vivo, Erigeron canadensis; conditions: 10 days
Summary of the method: as §1

barnyardgrass [5] = assay: Test C preemergence; assay type: in vivo, Echinochloa crusgalli; conditions: 0 to 100 scale (0 no effect, 100 complete control); for Plant response rating, Barnyardgrass: Preemergence, 500 g ai/ha, visual rating after 10 days; for Barnyardgrass plant response rating: Test C, preemergence, 125 g ai/ha
Summary of the method: as §1

kochia [6] = assay: Test C postemergence; assay type: in vivo, Bassia scoparia; conditions: 10 days
Summary of the method: as §1

corn [7] = assay: Test C preemergence; assay type: in vivo, Zea mays; conditions: 0 to 100 scale (0 no effect, 100 complete control); for Plant response rating, Corn: Preemergence, 500 g ai/ha, visual rating after 10 days; for Corn plant response rating: Test C, preemergence, 125 g ai/ha
Summary of the method: as §1

barnyardgrass [8] = assay: Test C postemergence; assay type: in vivo, Echinochloa crusgalli; conditions: 10 days
Summary of the method: as §1

wheat [9] = assay: Test C postemergence; assay type: in vivo, Triticum aestivum; conditions: 10 days
Summary of the method: as §1

pigweed, palmer [10] = assay: Test C postemergence; assay type: in vivo, Amaranthus palmeri; conditions: 10 days
Summary of the method: as §1

ryegrass, Italian [11] = assay: Test C preemergence; assay type: in vivo, Lolium multiflorum; conditions: 0 to 100 scale (0 no effect, 100 complete control); for Plant response rating, Ryegrass, Italian: Preemergence, 500 g ai/ha, visual rating after 10 days; for Ryegrass, Italian plant response rating: Test C, preemergence, 125 g ai/ha
Summary of the method: as §1

ryegrass, Italian [12] = assay: Test C postemergence; assay type: in vivo, Lolium multiflorum; conditions: 10 days
Summary of the method: as §1

oat, wild [13] = assay: Test C preemergence; assay type: in vivo, Avena fatua; conditions: 0 to 100 scale (0 no effect, 100 complete control); for Plant response rating, Oat, Wild: Preemergence, 500 g ai/ha, visual rating after 10 days
Summary of the method: as §1

kochia [14] = assay: Test C preemergence; assay type: in vivo, Bassia scoparia; conditions: 0 to 100 scale (0 no effect, 100 complete control); for Plant response rating, Kochia: Preemergence, 500 g ai/ha, visual rating after 10 days; for Kochia plant response rating: Test C, preemergence, 125 g ai/ha
Summary of the method: as §1

wheat [15] = assay: Test C preemergence; assay type: in vivo, Triticum aestivum; conditions: 0 to 100 scale (0 no effect, 100 complete control); for Plant response rating, Wheat: Preemergence, 500 g ai/ha, visual rating after 10 days; for Wheat plant response rating: Test C, preemergence, 125 g ai/ha
Summary of the method: as §1

corn [16] = assay: Test C postemergence; assay type: in vivo, Zea mays; conditions: 10 days
Summary of the method: as §1

ragweed [17] = assay: Test C postemergence; assay type: in vivo, Ambrosia artemisiifolia; conditions: 10 days
Summary of the method: as §1

barnyardgrass [18] = assay: Test D flooded paddy test; assay type: in vivo, Echinochloa crus-galli; conditions: 250 g ai/ha, applied to paddy water, visual rating after 13 to 14 days, scale 0 to 100 (0 no effect, 100 complete control)
Summary of the method: as §2

green foxtail [19] = assay: Test C preemergence; assay type: in vivo, Setaria viridis; conditions: 0 to 100 scale (0 no effect, 100 complete control); for Plant response rating, Foxtail, Green: Preemergence, 500 g ai/ha, visual rating after 10 days; for Foxtail, Green plant response rating: Test C, preemergence, 125 g ai/ha
Summary of the method: as §1

blackgrass [20] = assay: Test C postemergence; assay type: in vivo, Alopecurus myosuroides; conditions: 10 days
Summary of the method: as §1

soybean [21] = assay: Test C postemergence; assay type: in vivo, Glycine max; conditions: 10 days
Summary of the method: as §1

oat, wild [22] = assay: Test C postemergence; assay type: in vivo, Avena fatua; conditions: 10 days
Summary of the method: as §1

pigweed, palmer [23] = assay: Test C preemergence; assay type: in vivo, Amaranthus palmeri; conditions: 0 to 100 scale (0 no effect, 100 complete control); for Plant response rating, Pigweed, Palmer: Preemergence, 500 g ai/ha, visual rating after 10 days; for Pigweed, Palmer plant response rating: Test C, preemergence, 125 g ai/ha
Summary of the method: as §1

[24] = 125 g ai/ha, postemergence, 0 to 100 scale, 0 no effect, 100 complete control
[25] = Postemergence, 500 g ai/ha, visual 0 to 100 scale (0 no effect, 100 complete control)

C[C@H]1CN(C(=O)c2cccc(-c3ncccn3)c2)c2cccc(Cl)c2O1 [Compound 203]
40: Plant response rating, Kochia (kochia [6]; [25]) | Plant response rating, Pigweed, Palmer (pigweed, palmer [10]; [25])
30: Plant response rating, Kochia (kochia [14])
100: Plant response rating, Soybean (soybean [21]; [24]) | Plant response rating, Soybean (soybean [21]; [25])
0: Plant response rating, Soybean (soybean [1]) | Soybean plant response rating (soybean [1]) | Plant response rating, Sedge, Umbrella (Flood) (sedge, umbrella) | Plant response rating, Rice (Flood) (rice) | Plant response rating, Foxtail, Green (green foxtail [2]; [24]) | Plant response rating, Ragweed (ragweed [3]) | Ragweed plant response rating (ragweed [3]) | Plant response rating, Ducksalad (Flood) (ducksalad) | Plant response rating, Blackgrass (blackgrass [4]) | Blackgrass plant response rating (blackgrass [4]) | Plant response rating, Horseweed (horseweed; [24]) | Plant response rating, Horseweed (horseweed; [25]) | Plant response rating, Barnyardgrass (barnyardgrass [5]) | Barnyardgrass plant response rating (barnyardgrass [5]) | Plant response rating, Kochia (kochia [6]; [24]) | Plant response rating, Corn (corn [7]) | Corn plant response rating (corn [7]) | Plant response rating, Barnyardgrass (barnyardgrass [8]; [24]) | Plant response rating, Barnyardgrass (barnyardgrass [8]; [25]) | Plant response rating, Wheat (wheat [9]; [24]) | Plant response rating, Pigweed, Palmer (pigweed, palmer [10]; [24]) | Ryegrass, Italian plant response rating (ryegrass, Italian [11]) | Plant response rating, Ryegrass, Italian (ryegrass, Italian [12]; [24]) | Plant response rating, Ryegrass, Italian (ryegrass, Italian [12]; [25]) | Plant response rating, Oat, Wild (oat, wild [13]) | Kochia plant response rating (kochia [14]) | Plant response rating, Wheat (wheat [15]) | Wheat plant response rating (wheat [15]) | Plant response rating, Corn (corn [16]; [24]) | Plant response rating, Ragweed (ragweed [17]; [24]) | Plant response rating, Barnyardgrass (Flood) (barnyardgrass [18]) | Plant response rating, Blackgrass (blackgrass [20]; [24]) | Plant response rating, Blackgrass (blackgrass [20]; [25]) | Plant response rating, Oat, Wild (oat, wild [22]; [24])
60: Plant response rating, Foxtail, Green (green foxtail [19])
20: Plant response rating, Ryegrass, Italian (ryegrass, Italian [11]) | Plant response rating, Ragweed (ragweed [17]; [25]) | Foxtail, Green plant response rating (green foxtail [19]) | Pigweed, Palmer plant response rating (pigweed, palmer [23])
10: Plant response rating, Foxtail, Green (green foxtail [2]; [25]) | Plant response rating, Wheat (wheat [9]; [25]) | Plant response rating, Corn (corn [16]; [25]) | Plant response rating, Oat, Wild (oat, wild [22]; [25])
70: Plant response rating, Pigweed, Palmer (pigweed, palmer [23])

CCc1ncn(-c2ccc(OC)c(C(=O)N3C[C@H](C)Oc4c(C)cccc43)c2)n1 [Compound 211]
90: Plant response rating, Foxtail, Green (green foxtail [2]; [24]) | Plant response rating, Foxtail, Green (green foxtail [2]; [25]) | Plant response rating, Blackgrass (blackgrass [4]) | Blackgrass plant response rating (blackgrass [4]) | Plant response rating, Horseweed (horseweed; [25]) | Plant response rating, Kochia (kochia [6]; [25]) | Plant response rating, Wheat (wheat [9]; [25]) | Plant response rating, Pigweed, Palmer (pigweed, palmer [10]; [24]) | Plant response rating, Ryegrass, Italian (ryegrass, Italian [12]; [25]) | Plant response rating, Oat, Wild (oat, wild [13]) | Plant response rating, Corn (corn [16]; [25]) | Plant response rating, Blackgrass (blackgrass [20]; [24]) | Plant response rating, Oat, Wild (oat, wild [22]; [25])
100: Plant response rating, Soybean (soybean [1]) | Soybean plant response rating (soybean [1]) | Plant response rating, Sedge, Umbrella (Flood) (sedge, umbrella) | Plant response rating, Ragweed (ragweed [3]) | Ragweed plant response rating (ragweed [3]) | Plant response rating, Ducksalad (Flood) (ducksalad) | Plant response rating, Barnyardgrass (barnyardgrass [5]) | Barnyardgrass plant response rating (barnyardgrass [5]) | Plant response rating, Barnyardgrass (barnyardgrass [8]; [25]) | Plant response rating, Pigweed, Palmer (pigweed, palmer [10]; [25]) | Plant response rating, Ryegrass, Italian (ryegrass, Italian [11]) | Ryegrass, Italian plant response rating (ryegrass, Italian [11]) | Plant response rating, Kochia (kochia [14]) | Kochia plant response rating (kochia [14]) | Plant response rating, Foxtail, Green (green foxtail [19]) | Plant response rating, Blackgrass (blackgrass [20]; [25]) | Plant response rating, Soybean (soybean [21]; [24]) | Plant response rating, Soybean (soybean [21]; [25]) | Plant response rating, Pigweed, Palmer (pigweed, palmer [23]) | Pigweed, Palmer plant response rating (pigweed, palmer [23])
55: Plant response rating, Barnyardgrass (Flood) (barnyardgrass [18])
0: Foxtail, Green plant response rating (green foxtail [19])
80: Plant response rating, Horseweed (horseweed; [24]) | Plant response rating, Barnyardgrass (barnyardgrass [8]; [24]) | Plant response rating, Wheat (wheat [15]) | Wheat plant response rating (wheat [15])
50: Plant response rating, Rice (Flood) (rice) | Plant response rating, Ragweed (ragweed [17]; [24])
70: Plant response rating, Kochia (kochia [6]; [24]) | Plant response rating, Corn (corn [7]) | Corn plant response rating (corn [7]) | Plant response rating, Wheat (wheat [9]; [24]) | Plant response rating, Ryegrass, Italian (ryegrass, Italian [12]; [24]) | Oat, Wild plant response rating (oat, wild [13]; Test C, preemergence, 125 g ai/ha) | Plant response rating, Corn (corn [16]; [24]) | Plant response rating, Ragweed (ragweed [17]; [25]) | Plant response rating, Oat, Wild (oat, wild [22]; [24])
